Measurements published in patent US20110015241A1, “SUBSTITUTED HETEROCYCLES AND USE THEREOF” (BAYER SCHERING PHARMA AKTIENGESELLSCHAFT, priority 2006, published 2011).
Structures can show the parent of a compound that is named as a salt.

Target: T1, human factor Xa (Homo sapiens, UniProt P00742)
T1 construct: factor Xa, which is formed from the proenzyme factor X
Experiment: Determination of the factor Xa inhibition (fluorogenic substrate Boc-Ile-Glu-Gly-Arg-AMC)
Type: biochemical
Conditions: 15 min preincubation at 22° C., substrate 5 μmol/l, pH 7.4, fluorescence 360/460 nm
Description: In order to determine the factor Xa inhibition of the substances listed above, a biochemical test system is set up, in which the conversion of a factor Xa substrate is used to determine the enzymatic activity of human factor Xa. Factor Xa cleaves aminomethylcoumarin, whose fluorescence is measured, from the peptidic substrate. The determinations are carried out in microtitre plates.
Substances to be tested, in various concentrations, are dissolved in dimethyl sulphoxide and incubated for 15 min at 22° C. with human Factor Xa ([…] dissolved in 50 mmol/l of Tris buffer [C,C,C-tris(hydroxymethyl)aminomethane], 100 mmol/l NaCl, 0.1% BSA [bovine serum albumin], pH 7.4). The substrate (5 μmol/l of Boc-Ile-Glu-Gly-Arg-AMC from Bachem) is then added. After an incubation time of 30 min, the sample is excited at a wavelength of 360 nm, and the emission at 460 nm is measured. The measured emissions of the test batches with test substance are compared to the control batches without test substance (only dimethyl sulphoxide instead of test substance in dimethyl sulphoxide), and IC50 values are calculated from the concentration/activity relationships.

T1 sequence (P00742 235-488 limits assumed): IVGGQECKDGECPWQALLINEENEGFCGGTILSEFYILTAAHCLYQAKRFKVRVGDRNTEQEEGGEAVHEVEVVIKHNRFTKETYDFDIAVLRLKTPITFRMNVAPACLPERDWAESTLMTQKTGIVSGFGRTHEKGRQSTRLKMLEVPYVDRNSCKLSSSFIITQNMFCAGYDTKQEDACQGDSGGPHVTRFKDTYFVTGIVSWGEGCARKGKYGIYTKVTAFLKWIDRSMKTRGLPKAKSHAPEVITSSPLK
T1 sequence (P00742 41-179 partner limits assumed): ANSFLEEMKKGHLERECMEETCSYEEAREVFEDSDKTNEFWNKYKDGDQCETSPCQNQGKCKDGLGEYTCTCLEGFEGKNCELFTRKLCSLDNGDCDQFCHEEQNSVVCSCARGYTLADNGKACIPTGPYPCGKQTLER

With `N=C1OCCN1c1ccc(C2=NOC(CNC(=O)c3ccc(Cl)s3)C2)cc1` (centres unmarked) [Example 1, 5-Chloro-N-({3-[4-(2-imino-1,3-oxazolidin-3-yl)phenyl]-4,5-dihydroisoxazol-5-yl}methyl)thiophene-2-carboxamide] the IC50 was 7.9 nM.

In the case of `N=C1OCCN1c1ccc(-n2cc(CNC(=O)c3ccc(Cl)s3)c(-c3ccccc3)n2)cc1` [Example 2, 5-Chloro-N-({1-[4-(2-imino-1,3-oxazolidin-3-yl)phenyl]-3-phenyl-1H-pyrazol-4-yl}methyl)thiophene-2-carboxamide hydrochloride], the IC50 is reported as 1.4 nM.
